Where a name gives a salt, the structure may show the parent alone. Bridge positions count the residues as written; N and C are the ends. Square brackets hold non-standard residues; d marks the D form. Peptide text beside a SMILES is read from it. * marks the point of attachment. ξ: configuration not given here. Thr(3ξ) = CC(O)[C@H](N)C(=O)O; Dab = NCC[C@H](N)C(=O)O; Inp = O=C(O)C1CCNCC1; X4 = NC1CCCC1C(=O)*; Ahx = NCCCCCC(=O)O
What was measured:
Assay type in all cases: cell-based
[1] = test system: Acinetobacter baumannii; assay: MIC, compound in combination with a second agent (broth microdilution); conditions: 1:1 (wt:wt) combination with Rifampicin
Outline: (§1)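 Broth microdilution with inoculum from 18-24 h Mueller-Hinton agar colonies adjusted to 0.5 McFarland, up to four strains per species. Compound combined 1:1 w/w with second agent (e.g. rifampicin), mass as salt form; MIC is total drug concentration. Duplicates, lower value reported if within 2-fold; modal value for repeat tests.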

[2] = test system: Escherichia coli; assay: as above; conditions: 1:1 (wt:wt) combination with Rifampicin
Outline: as §1

[3] = test system: Klebsiella pneumoniae; assay: as above; conditions: 1:1 (wt:wt) combination with Rifampicin; for MIC K. pneumoniae ATCC 4352: strain ATCC 4352
Outline: as §1

[4] = test system: Pseudomonas aeruginosa; assay: as above; conditions: 1:1 (wt:wt) combination with Rifampicin
Outline: as §1

[5] = test system: Acinetobacter baumannii; assay: MIC, sole activity (no second agent); conditions: in the absence of Rifampicin; for MIC A. baumannii ATCCBAA-747: strain ATCCBAA-747; for MIC A. baumannii NCTC 13423: strain NCTC13423; for MIC A. baumannii ATCC13424: strain ATCC13424
Outline: (§2)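 Compound tested without a second agent in cation-adjusted MHB, up to four strains per species, inoculum at 0.5 McFarland from colonies grown 18-24 h on Mueller-Hinton agar. Run in duplicate, invalid beyond 2-fold disagreement, lower duplicate or modal repeat value given, expressed relative to Polymyxin B.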

[6] = test system: Escherichia coli; assay: MIC, sole activity (no second agent); conditions: in the absence of Rifampicin
Outline: as §2

[7] = test system: Klebsiella pneumoniae; assay: MIC, sole activity (no second agent); conditions: in the absence of Rifampicin; for MIC K. pneumoniae ATCC 4352: strain ATCC 4352; for MIC K. pneumoniae ATCC-BAA2146: strain ATCC-BAA2146; for MIC K. pneumoniae CCUG-59348: strain CCUG-59348
Outline: as §2

[8] = test system: Pseudomonas aeruginosa; assay: MIC, sole activity (no second agent); conditions: in the absence of Rifampicin; for MIC P. aeruginosa ATCC 27853: strain ATCC27853; for MIC P. aeruginosa ATCCCRM-9027: strain ATCCCRM-9027; for MIC P. aeruginosa CCUG 59626: strain CCUG 59626
Outline: as §2

[9] = MIC = total drug concentration, strain ATCC BAA-747
[10] = MIC = total drug concentration, strain CCUG57249
[11] = MIC = total drug concentration, strain NCTC 13423
[12] = MIC = total drug concentration, strain NCTC 13424
[13] = MIC = total drug concentration, strain ATCC25922
[14] = MIC = total drug concentration, strain NCTC9001
[15] = MIC = total drug concentration, strain ATCC-BAA-2146
[16] = MIC = total drug concentration, strain CCUG-59348
[17] = MIC = total drug concentration, strain NCTC 13438
[18] = MIC = total drug concentration, strain ATCC CRM-9027
[19] = MIC = total drug concentration, strain ATCC-47
[20] = MIC = total drug concentration, strain CCUG 59626
[21] = MIC = total drug concentration, strain ATCC 27853
[22] = MIC is total drug concentration

CC(C)C[C@@H]1NC(=O)[C@@H](Cc2ccccc2)NC(=O)[C@H](CCN)NC(=O)[C@@H](NC(=O)[C@H](CCN)NC(=O)[C@@H](NC(=O)CCCCCN)C(C)O)CCNC(=O)[C@H](C(C)O)NC(=O)[C@H](CCN)NC(=O)[C@H](CCN)NC1=O (stereo partly drawn) [Example 2, 6-Aminohexanoyl polymyxin B nonapeptide] (H-[Ahx][Thr(3ξ)][Dab][Dab][Dab][dF]L[Dab][Dab][Thr(3ξ)]; lactam 4-C)
≤0.06 micrograms/mL: MIC A. baumannii ATCC BAA-747 [1, 9] | MIC A. baumannii CCUG57249 [1, 10] | MIC A. baumannii NCTC 13423 [1, 11] | MIC A. baumannii NCTC 13424 [1, 12]
2 micrograms/mL: MIC E. coli ATCC25922 ([6]; strain ATCC25922)
0.25 micrograms/mL: MIC P. aeruginosa ATCC CRM-9027 [4, 18] | MIC P. aeruginosa ATCC-47 [4, 19] | MIC P. aeruginosa ATCCCRM-9027 [8]
8 micrograms/mL: MIC A. baumannii ATCCBAA-747 [5] | MIC E. coli NCTC9001 ([6]; strain NCTC9001)
4 micrograms/mL: MIC K. pneumoniae CCUG-59348 [3, 16]
0.125 micrograms/mL: MIC E. coli ATCC25922 [2, 13] | MIC P. aeruginosa CCUG 59626 [4, 20]
0.5 micrograms/mL: MIC E. coli NCTC9001 [2, 14] | MIC K. pneumoniae ATCC-BAA-2146 [3, 15] | MIC K. pneumoniae NCTC 13438 [3, 17] | MIC A. baumannii NCTC 13423 [5] | MIC K. pneumoniae ATCC 4352 [7] | MIC P. aeruginosa ATCC 27853 [8]

CC(C)C[C@@H]1NC(=O)[C@@H](Cc2ccccc2)NC(=O)[C@H](CCN)NC(=O)[C@@H](NC(=O)[C@H](CCN)NC(=O)[C@@H](NC(=O)C2CCCC2N)C(C)O)CCNC(=O)[C@H](C(C)O)NC(=O)[C@H](CCN)NC(=O)[C@H](CCN)NC1=O (stereo partly drawn) [Example 7, (1R,S/2R,S)-2-Aminocyclopentane-carbonyl polymyxin B nonapeptide] (X4-[Thr(3ξ)][Dab][Dab][Dab][dF]L[Dab][Dab][Thr(3ξ)]; lactam 3-C)
>32 micrograms/mL: MIC K. pneumoniae ATCC-BAA2146 [7] | MIC K. pneumoniae CCUG-59348 [7]
2 micrograms/mL: MIC A. baumannii ATCC13424 [5] | MIC A. baumannii CCUG57249 ([5]; strain CCUG 57249)
0.5 micrograms/mL: MIC K. pneumoniae NCTC 13438 [3, 17] | MIC K. pneumoniae ATCC 4352 [7]
1 micrograms/mL: MIC A. baumannii ATCCBAA-747 [5] | MIC A. baumannii NCTC 13423 [5] | MIC P. aeruginosa ATCC-47 ([8]; strain ATCC-47)
≤0.06 micrograms/mL: MIC A. baumannii ATCC BAA-747 [1, 9] | MIC A. baumannii CCUG57249 [1, 10] | MIC A. baumannii NCTC 13423 [1, 11] | MIC E. coli ATCC25922 [2, 13]
4 micrograms/mL: MIC K. pneumoniae CCUG-59348 [3, 16]
0.25 micrograms/mL: MIC E. coli NCTC9001 [2, 14] | MIC K. pneumoniae ATCC-BAA-2146 [3, 15] | MIC P. aeruginosa ATCC CRM-9027 [4, 18] | MIC P. aeruginosa ATCC-47 [4, 19]
0.125 micrograms/mL: MIC A. baumannii NCTC 13424 [1, 12] | MIC K. pneumoniae ATCC 4352 ([3]; MIC = total drug concentration) | MIC P. aeruginosa ATCC 27853 [4, 21] | MIC P. aeruginosa CCUG 59626 [4, 20] | MIC P. aeruginosa ATCC 27853 [8] | MIC P. aeruginosa ATCCCRM-9027 [8] | MIC P. aeruginosa CCUG 59626 [8]

CC(C)C[C@@H]1NC(=O)[C@@H](Cc2ccccc2)NC(=O)[C@H](CCN)NC(=O)[C@@H](NC(=O)[C@H](CCN)NC(=O)[C@@H](NC(=O)C2CCNCC2)C(C)O)CCNC(=O)[C@H](C(C)O)NC(=O)[C@H](CCN)NC(=O)[C@H](CCN)NC1=O (stereo partly drawn) [Example 29, 4-piperidinecarbonyl polymyxin B nonapeptide, trifluoroacetate] (H-[Inp][Thr(3ξ)][Dab][Dab][Dab][dF]L[Dab][Dab][Thr(3ξ)]; lactam 4-C)
0.5 micrograms/mL: MIC K. pneumoniae NCTC 13438 [3, 17] | MIC K. pneumoniae NCTC 13438 [3, 22]
0.25 micrograms/mL: MIC E. coli NCTC9001 [2, 14] | MIC E. coli NCTC9001 [2, 22] | MIC K. pneumoniae ATCC-BAA-2146 [3, 15] | MIC K. pneumoniae ATCC-BAA-2146 [3, 22] | MIC P. aeruginosa ATCC-47 [4, 19] | MIC P. aeruginosa ATCC-47 [4, 22]
4 micrograms/mL: MIC K. pneumoniae CCUG-59348 [3, 16] | MIC K. pneumoniae CCUG-59348 [3, 22]
≤0.06 micrograms/mL: MIC A. baumannii ATCC BAA-747 [1, 9] | MIC A. baumannii NCTC 13423 [1, 11] | MIC A. baumannii ATCC BAA-747 [1, 22] | MIC A. baumannii NCTC 13423 [1, 22] | MIC K. pneumoniae ATCC 4352 ([3]; MIC = total drug concentration)
>32 micrograms/mL: MIC K. pneumoniae ATCC-BAA2146 [7] | MIC K. pneumoniae CCUG-59348 [7]
2 micrograms/mL: MIC A. baumannii ATCC13424 [5]
0.125 micrograms/mL: MIC A. baumannii CCUG57249 [1, 10] | MIC A. baumannii NCTC 13424 [1, 12] | MIC A. baumannii CCUG57249 [1, 22] | MIC A. baumannii NCTC 13424 [1, 22] | MIC E. coli ATCC25922 [2, 13] | MIC E. coli ATCC25922 [2, 22] | MIC P. aeruginosa ATCC 27853 [4, 21] | MIC P. aeruginosa ATCC CRM-9027 [4, 18] | MIC P. aeruginosa CCUG 59626 [4, 20] | MIC P. aeruginosa ATCC 27853 [4, 22] | MIC P. aeruginosa ATCC CRM-9027 [4, 22] | MIC P. aeruginosa CCUG 59626 [4, 22] | MIC P. aeruginosa CCUG 59626 [8]

Source: patent US10407467B2, “Polymyxin derivatives and their use in combination therapy together with different antibiotics” (priority 2013, dated 2019)
